Test results from patent publication US11191820B2, “Method for inducing early T memory response with short peptides anti-tumor vaccine” (OSE IMMUNOTHERAPEUTICS, priority 2015, dated 2021).

What was measured:
Assay type in all cases: in vivo, human
central memory T cells [1] = test: Cultured IFN-γ ELISPOT after 10-day in vitro stimulation of PBMC, phase 1/2 colon cancer trial of OSE-2101; design: key to net SFC of vaccine positive CTL responses: —, indicates SFC response did not meet criteria and vaccine response was negative; settings: for Mean SFC: 10 colon patients
How it was run: (§1)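 Patient PBMC (pre-treatment, Week 9, Week 18, after s.c. dosing every 3 weeks) were stimulated 10 days with 10 μg/ml of each epitope plus rIL-2 10 U/ml on days 1, 4 and 7. Cells were then tested 20 h with irradiated autologous PBMC and 10 μg/ml vaccine or wild-type peptide. Net SFC per 5×10^4 cells, irrelevant HBV peptide subtracted.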

central memory T cells [2] = test: Cultured IFN-γ ELISPOT after 10-day in vitro stimulation of PBMC, phase 1/2 NSCLC trial of OSE-2101; design: key to net SFC of vaccine positive CTL responses: —, indicates SFC response did not meet criteria and vaccine response was negative; settings: for Mean SFC / No. Positive Responses: 6 NSCLC patients
How it was run: as §1

central memory T cells [3] = test: Central memory T cell cultured ELISPOT, phase 2 trial in advanced NSCLC
How it was run: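 Patient PBMC were pre-stimulated for 10 days with 10 μg/ml peptide plus rIL2 (10 U/ml, days 1, 4, 7), then replated at 5×10^4/well with irradiated autologous PBMC and 10 μg/ml peptide, and SFC were counted. A response was positive if >5 SFC above, and > mean+2 SD of, the irrelevant HBV epitope, and twofold the pre-vaccination response plus 2 SD.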

YLQLVFGIEV [MAGE2.157 WT]
Mean SFC (central memory T cells [1]; Week 9): 246.0 SFC per 50,000 cells
Mean SFC (central memory T cells [1]; Week 18): 418.1 SFC per 50,000 cells
net SFC of vaccine positive CTL responses (central memory T cells [1]; colon patient 551, Week 9): —
net SFC of vaccine positive CTL responses (central memory T cells [1]; colon patient 551, Week 18): 45.7 SFC per 50,000 cells
net SFC of vaccine positive CTL responses (central memory T cells [1]; colon patient 601, Week 9): —
net SFC of vaccine positive CTL responses (central memory T cells [1]; colon patient 601, Week 18): —
net SFC of vaccine positive CTL responses (central memory T cells [1]; colon patient 602, Week 9): —
net SFC of vaccine positive CTL responses (central memory T cells [1]; colon patient 602, Week 18): —
net SFC of vaccine positive CTL responses (central memory T cells [1]; colon patient 603, Week 9): 320.0 SFC per 50,000 cells
net SFC of vaccine positive CTL responses (central memory T cells [1]; colon patient 603, Week 18): —
net SFC of vaccine positive CTL responses (central memory T cells [1]; colon patient 604, Week 9): —
net SFC of vaccine positive CTL responses (central memory T cells [1]; colon patient 604, Week 18): —
net SFC of vaccine positive CTL responses (central memory T cells [1]; colon patient 605, Week 9): —
net SFC of vaccine positive CTL responses (central memory T cells [1]; colon patient 605, Week 18): —
net SFC of vaccine positive CTL responses (central memory T cells [1]; colon patient 606, Week 9): —
net SFC of vaccine positive CTL responses (central memory T cells [1]; colon patient 606, Week 18): 24.7 SFC per 50,000 cells
net SFC of vaccine positive CTL responses (central memory T cells [1]; colon patient 607, Week 9): 172.0 SFC per 50,000 cells
net SFC of vaccine positive CTL responses (central memory T cells [1]; colon patient 607, Week 18): 1184.0 SFC per 50,000 cells
net SFC of vaccine positive CTL responses (central memory T cells [1]; colon patient 608, Week 9): —
net SFC of vaccine positive CTL responses (central memory T cells [1]; colon patient 608, Week 18): —
net SFC of vaccine positive CTL responses (central memory T cells [1]; colon patient 609, Week 9): —
net SFC of vaccine positive CTL responses (central memory T cells [1]; colon patient 609, Week 18): —
Mean SFC (central memory T cells [2]; Week 9): 30.0 SFC per 50,000 cells
No. Positive Responses (central memory T cells [2]; Week 9): 2
Mean SFC (central memory T cells [2]; Week 18): 66.8 SFC per 50,000 cells
No. Positive Responses (central memory T cells [2]; Week 18): 2
net SFC of vaccine positive CTL responses (central memory T cells [2]; NSCLC patient 201, Week 9): —
net SFC of vaccine positive CTL responses (central memory T cells [2]; NSCLC patient 201, Week 18): —
net SFC of vaccine positive CTL responses (central memory T cells [2]; NSCLC patient 502, Week 9): 9.3 SFC per 50,000 cells
net SFC of vaccine positive CTL responses (central memory T cells [2]; NSCLC patient 502, Week 18): —
net SFC of vaccine positive CTL responses (central memory T cells [2]; NSCLC patient 504, Week 9): 50.7 SFC per 50,000 cells
net SFC of vaccine positive CTL responses (central memory T cells [2]; NSCLC patient 504, Week 18): 124.7 SFC per 50,000 cells
net SFC of vaccine positive CTL responses (central memory T cells [2]; NSCLC patient 505, Week 9): —
net SFC of vaccine positive CTL responses (central memory T cells [2]; NSCLC patient 505, Week 18): —
net SFC of vaccine positive CTL responses (central memory T cells [2]; NSCLC patient 532, Week 9): —
net SFC of vaccine positive CTL responses (central memory T cells [2]; NSCLC patient 532, Week 18): —
net SFC of vaccine positive CTL responses (central memory T cells [2]; NSCLC patient 651, Week 9): —
net SFC of vaccine positive CTL responses (central memory T cells [2]; NSCLC patient 651, Week 18): 9.0 SFC per 50,000 cells
% of patients with positive CTL/central memory T cell response (central memory T cells [3]; phase 2, month 9): 57%
patients with positive CTL/central memory T cell response / patients tested (central memory T cells [3]; phase 2, month 9): 4/7
% of patients with positive CTL/central memory T cell response (central memory T cells [3]; phase 2, month 12): 50%
patients with positive CTL/central memory T cell response / patients tested (central memory T cells [3]; phase 2, month 12): 2/4
% of patients with positive CTL/central memory T cell response (central memory T cells [3]; phase 2, week 9): 27%
patients with positive CTL/central memory T cell response / patients tested (central memory T cells [3]; phase 2, week 9): 9/33
% of patients with positive CTL/central memory T cell response (central memory T cells [3]; phase 2, week 18): 28%
patients with positive CTL/central memory T cell response / patients tested (central memory T cells [3]; phase 2, week 18): 9/32
% of patients with positive CTL/central memory T cell response (central memory T cells [3]; phase 2, week 30): 43%
patients with positive CTL/central memory T cell response / patients tested (central memory T cells [3]; phase 2, week 30): 10/23

KLBPVQLWV [p53.139L2B3 A]
Mean SFC (central memory T cells [1]; Week 9): 70.5 SFC per 50,000 cells
Mean SFC (central memory T cells [1]; Week 18): 89.4 SFC per 50,000 cells
net SFC of vaccine positive CTL responses (central memory T cells [1]; colon patient 551, Week 9): —
net SFC of vaccine positive CTL responses (central memory T cells [1]; colon patient 551, Week 18): —
net SFC of vaccine positive CTL responses (central memory T cells [1]; colon patient 601, Week 9): 129.0 SFC per 50,000 cells
net SFC of vaccine positive CTL responses (central memory T cells [1]; colon patient 601, Week 18): 96.0 SFC per 50,000 cells
net SFC of vaccine positive CTL responses (central memory T cells [1]; colon patient 602, Week 9): —
net SFC of vaccine positive CTL responses (central memory T cells [1]; colon patient 602, Week 18): 22.7 SFC per 50,000 cells
net SFC of vaccine positive CTL responses (central memory T cells [1]; colon patient 603, Week 9): 85.3 SFC per 50,000 cells
net SFC of vaccine positive CTL responses (central memory T cells [1]; colon patient 603, Week 18): —
net SFC of vaccine positive CTL responses (central memory T cells [1]; colon patient 604, Week 9): 41.0 SFC per 50,000 cells
net SFC of vaccine positive CTL responses (central memory T cells [1]; colon patient 604, Week 18): 188.7 SFC per 50,000 cells
net SFC of vaccine positive CTL responses (central memory T cells [1]; colon patient 605, Week 9): 9.7 SFC per 50,000 cells
net SFC of vaccine positive CTL responses (central memory T cells [1]; colon patient 605, Week 18): 44.7 SFC per 50,000 cells
net SFC of vaccine positive CTL responses (central memory T cells [1]; colon patient 606, Week 9): 43.7 SFC per 50,000 cells
net SFC of vaccine positive CTL responses (central memory T cells [1]; colon patient 606, Week 18): 37.7 SFC per 50,000 cells
net SFC of vaccine positive CTL responses (central memory T cells [1]; colon patient 607, Week 9): 114.3 SFC per 50,000 cells
net SFC of vaccine positive CTL responses (central memory T cells [1]; colon patient 607, Week 18): 146.7 SFC per 50,000 cells
net SFC of vaccine positive CTL responses (central memory T cells [1]; colon patient 608, Week 9): —
net SFC of vaccine positive CTL responses (central memory T cells [1]; colon patient 608, Week 18): —
net SFC of vaccine positive CTL responses (central memory T cells [1]; colon patient 609, Week 9): —
net SFC of vaccine positive CTL responses (central memory T cells [1]; colon patient 609, Week 18): —
Mean SFC (central memory T cells [2]; Week 9): 25.9 SFC per 50,000 cells
No. Positive Responses (central memory T cells [2]; Week 9): 3
Mean SFC (central memory T cells [2]; Week 18): 62.0 SFC per 50,000 cells
No. Positive Responses (central memory T cells [2]; Week 18): 4
net SFC of vaccine positive CTL responses (central memory T cells [2]; NSCLC patient 201, Week 9): —
net SFC of vaccine positive CTL responses (central memory T cells [2]; NSCLC patient 201, Week 18): —
net SFC of vaccine positive CTL responses (central memory T cells [2]; NSCLC patient 502, Week 9): —
net SFC of vaccine positive CTL responses (central memory T cells [2]; NSCLC patient 502, Week 18): —
net SFC of vaccine positive CTL responses (central memory T cells [2]; NSCLC patient 504, Week 9): 18.7 SFC per 50,000 cells
net SFC of vaccine positive CTL responses (central memory T cells [2]; NSCLC patient 504, Week 18): 90.3 SFC per 50,000 cells
net SFC of vaccine positive CTL responses (central memory T cells [2]; NSCLC patient 505, Week 9): —
net SFC of vaccine positive CTL responses (central memory T cells [2]; NSCLC patient 505, Week 18): 20.3 SFC per 50,000 cells
net SFC of vaccine positive CTL responses (central memory T cells [2]; NSCLC patient 532, Week 9): 53.0 SFC per 50,000 cells
net SFC of vaccine positive CTL responses (central memory T cells [2]; NSCLC patient 532, Week 18): 117.3 SFC per 50,000 cells
net SFC of vaccine positive CTL responses (central memory T cells [2]; NSCLC patient 651, Week 9): 6.0 SFC per 50,000 cells
net SFC of vaccine positive CTL responses (central memory T cells [2]; NSCLC patient 651, Week 18): 20.0 SFC per 50,000 cells
% of patients with positive CTL/central memory T cell response (central memory T cells [3]; phase 2, month 9): 29%
patients with positive CTL/central memory T cell response / patients tested (central memory T cells [3]; phase 2, month 9): 2/7
% of patients with positive CTL/central memory T cell response (central memory T cells [3]; phase 2, month 12): 50%
patients with positive CTL/central memory T cell response / patients tested (central memory T cells [3]; phase 2, month 12): 2/4
% of patients with positive CTL/central memory T cell response (central memory T cells [3]; phase 2, week 9): 55%
patients with positive CTL/central memory T cell response / patients tested (central memory T cells [3]; phase 2, week 9): 6/11
% of patients with positive CTL/central memory T cell response (central memory T cells [3]; phase 2, week 18): 36%
patients with positive CTL/central memory T cell response / patients tested (central memory T cells [3]; phase 2, week 18): 4/11
% of patients with positive CTL/central memory T cell response (central memory T cells [3]; phase 2, week 30): 50%
patients with positive CTL/central memory T cell response / patients tested (central memory T cells [3]; phase 2, week 30): 3/6
